pIC50: −log10 of the molar value.

The test system of series [1] is authentic EBOV (EBOV-Zaire 1995). Briefly: microbe, parasite or virus in culture. Format: cell-based, Ebola virus. The conditions noted are these: Zaire ebolavirus, Vero, 48 h, read-out: infectious EBOV-Z IC50.
A short description of another series: in vitro. The conditions noted are these: African green monkey.
A further series concerns rVSV-EBOV GP. The series can be described thus: microbe, parasite or virus in culture. Format: cell-based, Zaire Ebolavirus. The conditions noted are these: Zaire ebolavirus, read-out: rVSV-EBOV IC50.

One may read the pIC50 as −log10 of the IC50, conventionally taken in molar units. As for `CN1CCN(c2ccc([N+](=O)[O-])c(NC(c3ccccc3)c3ccccc3)c2)CC1` [PPZ-1, N-benzhydryl-5-(4-methylpiperazin-1-yl)-2-nitroaniline], the figures for the pIC50 (in series [1]; with rVSV-EBOV GP) were 5.64 and 5.92, respectively. Besides, the CC50 in “in vitro” turned out to be 61 µM.

`Cc1ccccc1C(Nc1cc(N2CCN(C)CC2)ccc1[N+](=O)[O-])c1ccccc1` (stereo not drawn) [MBX 3633, 2-[phenyl(o-tolyl)methylamino]-4-(4-methylpiperazin-1-yl)nitrobenzene]: the pIC50 in series [1] is 5.89; in the series on rVSV-EBOV GP, 5.82. For the same compound, in “in vitro”, the CC50 came to 15 µM.

As for `CN1CCN(c2ccc3nnn(C(c4ccccc4)c4ccccc4)c3c2)CC1` [MBX 3537A, 1-benzhydryl-6-(4-methylpiperazin-1-yl)-benzo[d][1,2,3]triazole], the pIC50 (in series [1]; in the series on rVSV-EBOV GP) was 5.64 each time. In addition, the CC50 in the series “in vitro” was 41 µM.

On to `CCCCN1CCN(c2ccc([N+](=O)[O-])c(NC(c3ccccc3)c3ccccc3)c2)CC1` [MBX 3559, 1-(benzhydrylamino)-5-(4-butylpiperazin-1-yl)-2-nitrobenzene], for which the pIC50 in series [1] was 5.77; with rVSV-EBOV GP, 5.44. Besides, in the series “in vitro”, the CC50 is greater than 200 µM.

Consider `O=[N+]([O-])c1ccc(N2CCN(Cc3ccco3)CC2)cc1NC(c1ccccc1)c1ccccc1` [MBX 3575, 1-(benzhydrylamino)-5-[4-(furan-2-ylmethyl)piperazin-1-yl]-2-nitrobenzene], for which the pIC50 in series [1] was less than 4.70; with rVSV-EBOV GP, 5.77. In addition, the CC50 in the series “in vitro” is greater than 200 µM.

Consider `Cc1nc2ccc(N3CCN(C)CC3)cc2n1C(c1ccccc1)c1ccccc1` [MBX 3539, 1-benzhydryl-2-methyl-6-(4-methylpiperazin-1-yl)benzo[d]imidazole], for which the pIC50 in series [1] was less than 4.70; with rVSV-EBOV GP, 4.85. Further, the CC50 in “in vitro” came to 77 µM.

As for `CC1CN(c2ccc3ncn(C(c4ccccc4)c4ccccc4)c3c2)CCN1C` (stereo not drawn) [MBX 4212, 1-benzhydryl-6-(3,4-dimethylpiperazin-1-yl)-1H-benzo[d]imidazole], the pIC50 in series [1] is 6.28; with rVSV-EBOV GP, 5.80. The same compound gave a CC50 in the series “in vitro” of 170 µM.

`CC(C)(C)N1CCN(c2ccc([N+](=O)[O-])c(NC(c3ccccc3)c3ccccc3)c2)CC1` [MBX 3625, 2-benzhydrylamino-4-(4-tert-butylpiperazin-1-yl)nitrobenzene]: the pIC50 is 6.11 in series [1] and 6.07 in the series with rVSV-EBOV GP. The CC50 in “in vitro” was greater than 100 µM.

As to `CN1CCN(c2ccc(NS(C)(=O)=O)c(NC(c3ccccc3)c3ccccc3)c2)CC1` [MBX 3536A, 2-(benzhydrylamino)-4-(4-methylpiperazin-1-yl)-1-(methylsulfonamido)benzene], the pIC50 is 5.51 in series [1] and 5.54 with rVSV-EBOV GP. Also, the CC50 in “in vitro” came to 26 µM.

For `CN1CCN(c2cc(C#N)c([N+](=O)[O-])c(NC(c3ccccc3)c3ccccc3)c2)CC1` [MBX 3743, 2-(benzhydrylamino)-4-(4-methylpiperazin-1-yl)-6-cyano-1-nitrobenzene], the pIC50 (in series [1]; in the series with rVSV-EBOV GP) was 5.70 in each case. The CC50 in “in vitro” was greater than 100 µM.

Regarding `CC(C)N(CCNc1ccc([N+](=O)[O-])c(NC(c2ccccc2)c2ccccc2)c1)C(C)C` [MBX 4336, N^3-benzhydryl-N^1-(2-(diisopropylamino)ethyl)-4-nitrobenzene-1,3-diamine], the negative-log IC50 (pIC50) in series [1] was 6.25; with rVSV-EBOV GP, 6.41. This compound also gave a CC50 in the series “in vitro” of 12 µM.

On to `CC(C)(C)N1CCCN(c2ccc([N+](=O)[O-])c(NC(c3ccccc3)c3ccccc3)c2)CC1` [MBX 3748, 2-(benzhydrylamino)-4-[4-(tert-butyl)-1,4-diazepan-1-yl]-1-nitrobenzene], for which the pIC50 in series [1] is 6.15; in the series with rVSV-EBOV GP, 6.60. Moreover, the CC50 in the series “in vitro” is 23 µM.

On to `O=[N+]([O-])c1ccc(N2CCN(Cc3cccnc3)CC2)cc1NC(c1ccccc1)c1ccccc1` [MBX 3568, 1-(benzhydrylamino)-5-[4-(pyridin-3-ylmethyl)piperazin-1-yl]-2-nitrobenzene], for which the pIC50 (in series [1]; with rVSV-EBOV GP) was 5.35 each time. The compound also yielded a CC50 in the series “in vitro” greater than 200 µM.

For the compound `CN1CCN(c2ccc3ncn(C(c4ccccc4)c4ccccc4)c3c2)CC1` [MBX 3540, 1-benzhydryl-6-(4-methylpiperazin-1-yl)benzo[d]imidazole], the figures for the pIC50 (in series [1]; in the series on rVSV-EBOV GP) were 6.05 and 6.10, respectively. Moreover, the CC50 in “in vitro” is 58 µM.

Regarding `CN(C)CCNc1ccc2ncn(C(c3ccccc3)c3ccccc3)c2c1` [MBX 4251, N^1-(1-benzhydryl-1H-benzo[d]imidazol-6-yl)-N^2,N^2-dimethylethane-1,2-diamine], the results for the negative-log IC50 (pIC50) (in series [1]; in the series on rVSV-EBOV GP) were 5.58 and 5.70, respectively. The CC50 in the series “in vitro” was found to be 105 µM.

As to `O=[N+]([O-])c1ccc(N2CCN(Cc3ccccn3)CC2)cc1NC(c1ccccc1)c1ccccc1` [MBX 3558, 1-(benzhydrylamino)-5-[4-(pyridin-2-ylmethyl)piperazin-1-yl]-2-nitrobenzene], the values for the pIC50 (in series [1]; in the series on rVSV-EBOV GP) were 5.55 and 5.40, respectively. For the same compound, the CC50 in “in vitro” is greater than 200 µM.

With `CN(C)CCNc1ccc([N+](=O)[O-])c(NC(c2ccccc2)c2ccccc2)c1` [MBX 4334, N^3-benzhydryl-N^1-(2-(dimethylamino)ethyl)-4-nitrobenzene-1,3-diamine], the pIC50 is 6.09 in series [1] and 5.98 in the series on rVSV-EBOV GP. In addition, in “in vitro”, the CC50 was 16 µM.

With `CN1CCN(c2ccc([N+](=O)[O-])c(NC(c3ccccc3)c3cccc(Cl)c3)c2)CC1` (stereo not drawn) [MBX 3643, 2-[(3-chlorophenyl)(phenyl)methylamino]-4-(4-methylpiperazin-1-yl)nitrobenzene], the pIC50 in series [1] is less than 4.70; in the series on rVSV-EBOV GP it was 6.07. Besides, the CC50 in “in vitro” worked out at 21 µM.

Consider `CC(=O)Nc1ccc(N2CCN(C)CC2)cc1NC(c1ccccc1)c1ccccc1` [MBX 3525, 2-(benzhydrylamino)-4-(4-methylpiperazin-1-yl)-1-acetamidobenzene], for which the pIC50 in series [1] was less than 4.70; in the series on rVSV-EBOV GP it was 5.40. This compound showed a CC50 in the series “in vitro” of 100 µM.

In the case of `O=[N+]([O-])c1ccc(N2CCN(Cc3ccccc3)CC2)cc1NC(c1ccccc1)c1ccccc1` [MBX 3569, 1-(benzhydrylamino)-5-(4-benzylpiperazin-1-yl)-2-nitrobenzene], the pIC50 is less than 4.70 in series [1] and less than 4.60 with rVSV-EBOV GP. The compound further registered a CC50 in the series “in vitro” greater than 200 µM.

Turning to `O=[N+]([O-])c1ccc(N2CCN(Cc3cccs3)CC2)cc1NC(c1ccccc1)c1ccccc1` [MBX 3576, 1-(benzhydrylamino)-5-[4-(thiophen-2-ylmethyl)piperazin-1-yl]-2-nitrobenzene], the pIC50 was less than 4.70 in series [1] and 5.24 in the series with rVSV-EBOV GP. The same compound yielded a CC50 in the series “in vitro” greater than 200 µM.

For the compound `O=[N+]([O-])c1ccc(N2CCN(C3CCC3)CC2)cc1NC(c1ccccc1)c1ccccc1` [MBX 3589, 1-(benzhydrylamino)-5-[4-(cyclobutyl)piperazin-1-yl]-2-nitrobenzene], the values for the pIC50 (in series [1]; in the series on rVSV-EBOV GP) were 5.10 and 6.08, respectively. In addition, the CC50 in “in vitro” was greater than 200 µM.

In the case of `CC(C)N(CCNc1ccc2ncn(C(c3ccccc3)c3ccccc3)c2c1)C(C)C` [MBX 4253, N1-(1-benzhydryl-1H-benzo[d]imidazol-6-yl)-N2,N2-diisopropylethane-1,2-diamine 2,2,2-trifluoroacetate], the pIC50 was 5.73 in series [1] and 5.89 in the series with rVSV-EBOV GP. The CC50 in the series “in vitro” was determined as 95 µM.

For the origin of these results see patent US11459308B2 (priority 2016, dated 2022).
